According to patent publication US20250109165A1, “CYCLOPHILIN INHIBITORS AND USES THEREOF” (The Broad Institute, Inc., priority 2022, published 2025):

How the values were obtained:
[1] = molecular target: T1, human carboxylesterase (CES1) (Homo sapiens, UniProt P23141); assay: In vitro esterase activity on ester pro-drug Cy5 derivatives; type: in vitro ADME; conditions: 0.25 μM CES1, 37° C., 8 hours
T1 sequence (P23141 18-567): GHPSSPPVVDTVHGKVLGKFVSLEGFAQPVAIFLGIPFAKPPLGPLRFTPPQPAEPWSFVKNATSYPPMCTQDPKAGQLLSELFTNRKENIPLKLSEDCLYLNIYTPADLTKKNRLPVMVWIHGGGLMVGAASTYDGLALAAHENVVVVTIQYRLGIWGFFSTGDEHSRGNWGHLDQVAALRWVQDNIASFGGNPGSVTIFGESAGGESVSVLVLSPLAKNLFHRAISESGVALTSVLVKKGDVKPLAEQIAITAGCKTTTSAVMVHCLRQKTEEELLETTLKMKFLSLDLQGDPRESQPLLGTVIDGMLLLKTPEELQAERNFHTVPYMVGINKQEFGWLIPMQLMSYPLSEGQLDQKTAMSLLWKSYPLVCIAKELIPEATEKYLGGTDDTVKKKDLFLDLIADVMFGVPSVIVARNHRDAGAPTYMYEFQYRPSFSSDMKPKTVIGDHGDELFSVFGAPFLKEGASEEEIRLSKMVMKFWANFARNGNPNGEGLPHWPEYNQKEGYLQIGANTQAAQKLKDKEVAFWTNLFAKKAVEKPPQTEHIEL
Experimental: In vitro esterase activity on ester pro-drug Cy5 derivatives of CypD inhibitors. Into PCR tubes, ester compound (6 μM) and either buffer only, CES1 (0.25 μM), or CES2 (0.25 μM) was diluted in 100 mM Tris-HCl buffer, pH 7.4, with a final DMSO concentration of 1%. Samples were maintained on a PCR block at 37° C. for 8 hours. After incubation, samples were diluted with 20 μL acetonitrile and analyzed by LC-MS at Harvard's Center for Mass Spectroscopy. Di-ester, mono-ester, and di-acid abundances were quantified by total ion count of the primary isotope, and the three compounds were summed and each one expressed as a fraction of the total sum.

HeLa cells = assay: Fluorescence microscopy on HeLa cells; type: cell-based, human; conditions: Cy5 labeled compound 6 μM
Experimental: Fluorescence microscopy on Hela cells. Into 96 well black, clear bottom TC treated plates, cells were seeded in Dulbecco's Modified Eagle Medium (DMEM) supplemented with 10% fetal bovine serum 24 hours prior at a density where wells were ˜80% confluent at time of experiment. Media was removed and cells were then stained with 50 μL of mixture containing Cy5 labeled compound (6 μM) in Kreb's ringer solution HEPES buffered pH 7.2 (KRB), for 1 hour at 37° C. Then, 50 μL Hoechst 33342 (8 μM) and Mitotracker Green FM (0.1 μM) in KRB was added directly to wells containing cells and incubated for 15 minutes at 37° C. Media was removed and cells were washed two times with 100 μL KRB. Cells were then kept adherent to the wells in 100 μL KRB for imaging. Fluorescence microscopy was conducted on an Opera Phenix Plus High-Content Screening System, using Alexa 488, Alexa 647, and Hoescht 33342 channels. Images were analyzed using Harmony 4.9.

[2] = system: A549, HeLa, HEK293T, HepG2, and MEFs; assay: Cellular esterase activity on ester pro-drug Cy5 derivatives; type: in vitro ADME, human and mouse; conditions: 6 μM, 48 hours (36 hours for HepG2)
Experimental: Cellular esterase activity on ester pro-drug Cy5 derivatives of CypD inhibitors. Into 96-well clear, flat-bottom TC-treated plates, cells were seeded in DMEM supplemented with 10% FBS for HEK293T, HeLa, and MEFs, F-12K supplemented with 10% FBS for A549, or MEM supplemented with 10% FBS for HepG2, 24 hours prior at a density where wells were ˜70% confluent at time of experiment. Media was removed and cells were incubated with 100 μL of mixture containing each Cy5-conjugated compound (6 μM) in their respective media at 1% DMSO for 48 hours (36 hours for HepG2) at 37° C. at 5% CO2. Supernatant was removed, and cells were washed 2 times with 100 μL of PBS pH 7.4 (Gibco). Cells were then lysed for 15 minutes with 30 μL of 10 mM Tris-HCl pH 8.0 buffer containing 0.05% SDS. Lysates were diluted with 100 μL acetonitrile and filtered. Lysates were analyzed by LC-MS at Harvard's Center for Mass Spectroscopy. Di-ester, mono-ester, and di-acid abundances were quantified by total ion count of the primary isotope, and the three compounds were summed and each one expressed as a fraction of the total sum.

CypD [3] = molecular target: T2, CypD (Homo sapiens, UniProt P30405); assay: Chymotrypsin coupled prolyl-isomerase assay; type: biochemical; conditions: for IC50: wild-type CypD
T2 construct: PPIF (UniProtKB Entry P30405: res 45-207); made in house; host or cells: E. coli BL21(DE3)
T2 sequence (P30405 45-207): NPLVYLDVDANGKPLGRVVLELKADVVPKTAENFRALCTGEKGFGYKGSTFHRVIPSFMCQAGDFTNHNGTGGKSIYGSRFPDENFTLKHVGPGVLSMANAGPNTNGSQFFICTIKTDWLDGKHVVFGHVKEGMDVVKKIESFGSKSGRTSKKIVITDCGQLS
Experimental: (§1) IC50 values were calculated to be the value at which 50% inhibition was achieved on each compound's non-linear regression fitted curve.

cyclophilins = assay: Prolyl-isomerase inhibition screen on cyclophilins and cyclophilin mutants; type: biochemical, human
Experimental: as §1

CypD K118E/R124A = molecular target: T3, CypD K118E/R124A (Homo sapiens, UniProt P30405, K118E/R124A); assay: Chymotrypsin coupled prolyl-isomerase assay; type: biochemical
T3 construct: made in house; host or cells: E. coli BL21(DE3)
T3 sequence (P30405 45-207 K118E/R124A): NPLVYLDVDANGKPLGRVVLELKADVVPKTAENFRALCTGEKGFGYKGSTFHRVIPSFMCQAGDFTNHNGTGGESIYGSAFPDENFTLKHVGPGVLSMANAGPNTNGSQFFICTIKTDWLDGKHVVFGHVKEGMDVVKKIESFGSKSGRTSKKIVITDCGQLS
Experimental: as §1

CypD R124A = molecular target: T4, CypD R124A (Homo sapiens, UniProt P30405, R124A); assay: Chymotrypsin coupled prolyl-isomerase assay; type: biochemical; conditions: CypD R124A mutant; read-out: IC50^CypDR124A
T4 construct: made in house; host or cells: E. coli BL21(DE3)
T4 sequence (P30405 45-207 R124A): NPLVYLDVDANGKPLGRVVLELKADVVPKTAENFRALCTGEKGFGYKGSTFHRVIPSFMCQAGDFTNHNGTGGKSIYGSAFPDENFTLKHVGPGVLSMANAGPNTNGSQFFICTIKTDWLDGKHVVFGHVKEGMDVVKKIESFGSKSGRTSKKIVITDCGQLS
Experimental: as §1

CypD [4] = assay: Chymotrypsin coupled prolyl-isomerase assay; type: biochemical, human
Experimental: as §1

CypD K118E = molecular target: T5, CypD K118E (Homo sapiens, UniProt P30405, K118E); assay: Chymotrypsin coupled prolyl-isomerase assay; type: biochemical; conditions: CypD K118E mutant; read-out: IC50^CypDK118E
T5 construct: made in house; host or cells: E. coli BL21(DE3)
T5 sequence (P30405 45-207 K118E): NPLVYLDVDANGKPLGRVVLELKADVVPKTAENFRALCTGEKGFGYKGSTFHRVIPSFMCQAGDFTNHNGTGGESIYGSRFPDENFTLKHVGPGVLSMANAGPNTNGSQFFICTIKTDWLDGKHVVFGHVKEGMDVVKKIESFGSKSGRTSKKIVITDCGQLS
Experimental: as §1

CypA E81S/K82R = molecular target: T6, CypA E81S/K82R (Homo sapiens, UniProt P62937, E81S/K82R); assay: Chymotrypsin coupled prolyl-isomerase assay; type: biochemical; conditions: CypA E81S/K82R gatekeeper mutant; read-out: IC50^CypAE81S/K82R
T6 construct: Lane 12-SNA-CypA E81S/K82R (1-165); His6 tag (N, cleaved yes); made in house; host or cells: E. coli BL21(DE3)
T6 sequence (P62937 whole entry E81S/K82R): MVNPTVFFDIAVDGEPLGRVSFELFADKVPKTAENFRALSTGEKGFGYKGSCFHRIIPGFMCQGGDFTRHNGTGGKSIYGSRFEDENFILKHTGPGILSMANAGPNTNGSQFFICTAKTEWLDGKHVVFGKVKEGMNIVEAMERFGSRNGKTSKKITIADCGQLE
Experimental: as §1

CypD K118A = molecular target: T7, CypD K118A (Homo sapiens, UniProt P30405, K118A); assay: Chymotrypsin coupled prolyl-isomerase assay; type: biochemical; conditions: CypD K118A mutant; read-out: IC50^CypDK118A
T7 construct: made in house; host or cells: E. coli BL21(DE3)
T7 sequence (P30405 45-207 K118A): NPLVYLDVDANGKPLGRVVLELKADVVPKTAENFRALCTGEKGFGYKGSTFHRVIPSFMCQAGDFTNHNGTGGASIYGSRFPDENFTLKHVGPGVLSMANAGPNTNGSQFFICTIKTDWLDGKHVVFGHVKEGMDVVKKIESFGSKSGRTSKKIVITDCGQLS
Experimental: as §1

CypB E121S = molecular target: T8, CypB E121S (Homo sapiens, UniProt P23284, E121S); assay: Chymotrypsin coupled prolyl-isomerase assay; type: biochemical; conditions: CypB E121S gatekeeper mutant; read-out: IC50^CypBE121S
T8 construct: Lane 14-SNA-CypB E121S (34-216); His6 tag (N, cleaved yes); made in house; host or cells: E. coli BL21(DE3)
T8 sequence (P23284 34-216 E121S): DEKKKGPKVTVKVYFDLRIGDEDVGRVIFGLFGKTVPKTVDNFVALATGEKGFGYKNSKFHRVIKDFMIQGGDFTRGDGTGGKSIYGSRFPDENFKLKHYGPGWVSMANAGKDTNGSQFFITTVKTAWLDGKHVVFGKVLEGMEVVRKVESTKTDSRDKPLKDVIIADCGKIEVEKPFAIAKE
Experimental: as §1

CypB = molecular target: T9, CypB (Homo sapiens, UniProt P23284); assay: Chymotrypsin coupled prolyl-isomerase assay; type: biochemical; conditions: wild-type CypB
T9 construct: PPIB (UniProtKB Entry P23284: res 34-216); His6 tag with TEV site (seen as […]- and […]- forms) (N); made in house; host or cells: E. coli BL21(DE3)
T9 sequence (P23284 34-216): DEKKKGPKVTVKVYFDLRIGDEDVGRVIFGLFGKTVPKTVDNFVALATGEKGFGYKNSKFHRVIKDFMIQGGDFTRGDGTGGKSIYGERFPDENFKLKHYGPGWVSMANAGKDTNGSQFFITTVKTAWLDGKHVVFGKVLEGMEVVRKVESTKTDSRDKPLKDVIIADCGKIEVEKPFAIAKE
Experimental: as §1

CypA = molecular target: T10, CypA (Homo sapiens, UniProt P62937); assay: Chymotrypsin coupled prolyl-isomerase assay; type: biochemical; conditions: wild-type CypA
T10 construct: PPIA (UniProtKB Entry P62937: res 1-165); made in house; host or cells: E. coli BL21(DE3)
T10 sequence (P62937 whole entry): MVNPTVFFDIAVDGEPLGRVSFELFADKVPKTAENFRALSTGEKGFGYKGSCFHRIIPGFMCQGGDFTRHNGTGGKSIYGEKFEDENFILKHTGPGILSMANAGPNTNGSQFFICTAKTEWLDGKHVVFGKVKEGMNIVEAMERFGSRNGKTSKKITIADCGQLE
Experimental: as §1

CypD S123E = molecular target: T11, CypD S123E (Homo sapiens, UniProt P30405, S123E); assay: Chymotrypsin coupled prolyl-isomerase assay; type: biochemical; conditions: CypD S123E gatekeeper mutant; read-out: IC50^CypDS123E
T11 construct: made in house; host or cells: E. coli BL21(DE3)
T11 sequence (P30405 45-207 S123E): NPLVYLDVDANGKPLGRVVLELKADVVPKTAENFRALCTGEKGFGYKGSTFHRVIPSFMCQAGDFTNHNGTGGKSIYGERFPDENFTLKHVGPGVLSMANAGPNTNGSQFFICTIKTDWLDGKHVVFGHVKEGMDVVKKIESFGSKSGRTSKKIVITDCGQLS
Experimental: as §1

## CCOC(=O)C(Cc1ccc(-c2ccc(C[C@H]3NC(=O)[C@@]4(Cc5ccccc5)CCCN(C4)C(=O)/C=C/C(=O)NCC[C@H](C(=O)NCCNC(=O)CCCCCN4\C(=C/C=C/C=C/C5=[N+](C)c6ccccc6C5(C)C)C(C)(C)c5ccccc54)NC(=O)Cc4ccccc4CNC3=O)cc2)cc1)C(=O)OCC [*B52-Et-Cy5]
[1]
  hydrolysis of ester prodrug by CES1: hydrolyzed to their active dicarboxylate forms
HeLa cells
  mitochondrial localization (overlap with Mitotracker Green): good mitochondrial localization
  plasma membrane / mammalian cell permeability: Strong mammalian cell permeability and mitochondrial localization
[2]
  intracellular conversion to di-acid by endogenous esterases: readily converted to the corresponding di-acid
CypD [3]
  CypD prolyl-isomerase inhibition (in words): did not potently inhibit

## CCOC(=O)CC(CC(=O)OCC)c1ccc(-c2ccc(C[C@H]3NC(=O)[C@@]4(Cc5ccccc5)CCCN(C4)C(=O)/C=C/C(=O)NCC[C@H](C(=O)NCCNC(=O)CCCCCN4\C(=C/C=C/C=C/C5=[N+](C)c6ccccc6C5(C)C)C(C)(C)c5ccccc54)NC(=O)Cc4ccccc4CNC3=O)cc2)cc1 [*B53-Et-Cy5]
[1]
  hydrolysis of ester prodrug by CES1: hydrolyzed to their active dicarboxylate forms
HeLa cells
  mitochondrial localization (overlap with Mitotracker Green): good mitochondrial localization
  plasma membrane / mammalian cell permeability: Strong mammalian cell permeability and mitochondrial localization
CypD [3]
  CypD prolyl-isomerase inhibition (in words): did not potently inhibit

## NCCCc1ccc(-c2ccc(C[C@@H]3NC(=O)[C@]4(Cc5ccccc5)CCCN(C4)C(=O)/C=C/C(=O)NCC[C@@H](C(=O)NCCOCCN)NC(=O)Cc4ccccc4CNC3=O)cc2)cc1 [Compound B32]
cyclophilins
  inhibition of cyclophilins tested (in words): overall poor potency for each cyclophilin
CypD K118E/R124A
  preference for CypD K118E/R124A over the nearest cyclophilin, PPWD1: at least 13 fold
CypD K118E/R124A; CypD K118E/R124A
  improvement compared to wild-type CypD: 100 fold
CypD K118E/R124A; CypD double mutant, read-out: IC50^CypDK11E/R124A
  IC50: 0.06 µM
CypD R124A
  IC50: 0.7 µM
CypD [4]; CypD mutants K118E and R124A
  inhibition potency improvement compared to wild-type CypD: 5- to 6 fold
CypD [3]; on inserting an amine with a net positive charge
  reduction in CypD potency: > 1,000 fold
CypD [3]
  IC50: 6 µM
CypD K118E
  IC50: 1.1 µM

## NCCOCCNC(=O)[C@@H]1CCNC(=O)/C=C/C(=O)N2CCC[C@](Cc3ccccc3)(C2)C(=O)N[C@@H](Cc2ccc(-c3ccc(C(CC(=O)O)CC(=O)O)cc3)cc2)C(=O)NCc2ccccc2CC(=O)N1 [Compound B53]
cyclophilins
  cyclophilin selectivity profile (in words): high potency and selectivity for CypD
cyclophilins; mutants as named at the place
  potency on cyclophilin mutants compared to wild-type (in words): little to no ablation of potency
CypA E81S/K82R
  IC50: 0.18 µM
CypD K118A
  IC50: 0.9 µM
CypD [4]; CypD versus wild-type CypA
  selectivity for CypD over CypA: 100 fold
CypD [3]
  IC50: 0.057 µM
CypB E121S
  IC50: 0.05 µM
CypB
  IC50: 1.1 µM
CypD K118E
  IC50: 4 µM
CypA
  IC50: 3.4 µM
CypD S123E
  IC50: 0.8 µM
